# Measurements reported in paper PMC9476183 (ACS Omega, 2022).
# Values joined by “and” are separate entries in the source; they are usually repeats but may differ in a detail not shown here. Equal values may be shown once.
# Assays:
# recombinant human CYP1A1 = target: T1, recombinant human CYP1A1 (Homo sapiens, UniProt P04798); experiment: EROD assay, CYP1A1 inhibition; assay type: biochemical
# T1 sequence (P04798 1-512): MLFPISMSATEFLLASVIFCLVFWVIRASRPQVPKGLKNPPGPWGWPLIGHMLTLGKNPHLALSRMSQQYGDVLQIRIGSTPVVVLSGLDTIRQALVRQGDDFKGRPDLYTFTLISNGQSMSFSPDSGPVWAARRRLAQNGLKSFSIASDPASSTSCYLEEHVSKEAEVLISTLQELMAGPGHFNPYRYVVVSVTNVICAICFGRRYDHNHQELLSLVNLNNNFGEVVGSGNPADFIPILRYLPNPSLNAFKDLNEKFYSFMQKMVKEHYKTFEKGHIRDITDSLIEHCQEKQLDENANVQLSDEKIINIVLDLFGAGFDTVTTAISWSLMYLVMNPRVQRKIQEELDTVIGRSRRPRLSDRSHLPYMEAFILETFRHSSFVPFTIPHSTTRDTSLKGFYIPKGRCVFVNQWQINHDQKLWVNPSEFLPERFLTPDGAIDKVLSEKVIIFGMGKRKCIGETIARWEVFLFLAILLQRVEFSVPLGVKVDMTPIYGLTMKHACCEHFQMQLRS
# recombinant human CYP1B1 = target: T2, recombinant human CYP1B1 (Homo sapiens, UniProt Q16678); experiment: EROD assay, CYP1B1 inhibition; details: IC50 CYP1B1 ± SD, recombinant human enzyme, EROD assay, triplicate
# T2 sequence (Q16678 1-543): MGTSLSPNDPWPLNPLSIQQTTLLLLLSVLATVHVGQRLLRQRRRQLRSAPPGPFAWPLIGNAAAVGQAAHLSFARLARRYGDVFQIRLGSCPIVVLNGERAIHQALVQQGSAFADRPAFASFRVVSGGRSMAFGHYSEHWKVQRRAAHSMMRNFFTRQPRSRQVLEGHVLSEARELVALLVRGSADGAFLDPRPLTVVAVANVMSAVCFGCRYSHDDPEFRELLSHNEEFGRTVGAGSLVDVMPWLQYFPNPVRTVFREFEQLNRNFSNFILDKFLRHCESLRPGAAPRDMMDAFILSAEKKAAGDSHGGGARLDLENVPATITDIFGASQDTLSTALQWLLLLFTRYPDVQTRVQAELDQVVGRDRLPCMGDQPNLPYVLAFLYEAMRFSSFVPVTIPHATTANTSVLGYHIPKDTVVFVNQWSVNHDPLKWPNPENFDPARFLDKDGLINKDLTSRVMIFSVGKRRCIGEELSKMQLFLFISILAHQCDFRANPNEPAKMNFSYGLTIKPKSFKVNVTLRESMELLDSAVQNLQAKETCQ
# CYP1B1 over CYP1A1 = target: T3, CYP1B1 over CYP1A1 (Homo sapiens, UniProt Q16678); experiment: EROD assay, CYP1B1 inhibition; details: human
# T3 sequence (Q16678 1-543): T2 sequence (Q16678 1-543)
# [1] = tested on: myeloid leukemia cell lines; details: ref [64],[65]; cited from earlier work
# MDA-MB-231 = details: MDA-MB-231, apoptosis mechanism; ref [66]; cited from earlier work
# [2] = tested on: orthotopic 4T1 breast cancer models; details: by inhibiting tumor-cell platelet aggregation, ref [63]; cited from earlier work
# [3] = pH 7.4, selectivity CYP1A1/CYP1B1, ratio of IC50 values
Structure (SMILES),IC50 (recombinant human CYP1A1),IC50 (recombinant human CYP1B1),selectivity ratio (CYP1B1 over CYP1A1; [3]),"selectivity ratio (CYP1B1 over CYP1A1; pH 7.4, selectivity toward CYP1B1 over CYP1A1, text)",cell death [1],anticancer activity (MDA-MB-231),breast cancer prevention [2]
"O=c1cc(-c2ccccc2)oc2c1ccc1ccccc12 [ANF, α-naphthoflavone]",0.02 ± 0.004 µM,,,,,,
CN(C)CC/C=C1/c2ccccc2Sc2ccc(Cl)cc21 [chlorprothixene],0.49 ± 0.04 µM,0.072 µM and 0.07 µM,6.8,7,induce cell death by apoptosis,,
COc1ccc(Cl)cc1C(=O)NCCc1ccc(S(=O)(=O)NC(=O)NC2CCCCC2)cc1 [glibenclamide],> 10 µM,> 10 µM,,,,,
CC1CCc2c(N3CCC(O)CC3)c(F)cc3c(=O)c(C(=O)O)cn1c23 (stereo not shown) [nadifloxacin],2.36 ± 0.2 µM,1.46 µM,1.61,,,promising anticancer activity,
CCCSc1nc(N[C@@H]2C[C@H]2c2ccc(F)c(F)c2)c2nnn([C@@H]3C[C@H](OCCO)[C@@H](O)[C@H]3O)c2n1 [ticagrelor],3.45 ± 0.39 µM,2.81 ± 0.9 µM,1.22,,,,breast cancer prevention activity
